Source: patent US20080305097A1, “Use of Protease or a Protease Inhibitor for the Manufacture of Medicaments” (YEDA RESEARCH AND DEVELOPMENT CO., LTD., priority 2004, published 2008)

Key:
[1] = tested on: hematopoietic progenitor cell (HPC); test: In vivo progenitor mobilization by SDF-1 or HGF, semi solid culture; set-up: species or system Balb/c mice; details: subcutaneously five consecutive days, 10 mcg SDF-1 or 1.5 mcg HGF
Protocol: (§1) We carried out the following experiment to verify in vivo our hypothesis that SDF-1 induces osteoclast activation and hematopoietic progenitor cell (HPC) mobilization. Balb/c mice were injected subcutaneously for five consecutive days with 10 mcg SDF-1 or 1.5 mcg HGF or both, and osteoclast activation (measured by TRAP+ staining as in Example 1) and mobilization to the peripheral blood, (assayed in semi solid culture as in Example 1) was determined.
(§2) In order to detect the levels of mouse progenitors in the blood circulation, semisolid cultures were performed as previously described (Petit, Nat Immunol, 2002). In brief, mouse BM cells (3×10^5 cells/ml) were plated in 0.9% methylcellulose (Sigma), 30% FCS, 5×10^−5M 2ME, 50 ng/ml SCF, 5 ng/ml IL-3, 5 ng/ml GM-CSF (R&D), and 2 u/ml erythropoietin (Orto Bio Tech, Don Mills, Canada). The cultures were incubated at 37° C. in a humidified atmosphere containing 5% CO2 and scored 7 days later by inverted microscopy by morphologic criteria.

[2] = tested on: osteoclast; test: In vivo osteoclast activation by SDF-1 or HGF, TRAP staining; set-up: species or system Balb/c mice; details: subcutaneously five consecutive days, 10 mcg SDF-1 or 1.5 mcg HGF
Protocol: as §1

[3] = tested on: TRAP+ multinucleated osteoclasts; test: Osteoblast/BM co-culture, TRAP+ multinucleated osteoclast count; type: cell-based, mouse; details: G-CSF 50 ng/ml, HGF 50 ng/ml, SDF-1 10 and 100 ng/ml; 5 days
Protocol: Osteoclast precursors are stimulated by cell-cell contact with osteoblasts to become activated multinucleated TRAP+ bone resorbing cells. To obtain active osteoclasts in vitro, a clvarian osteoblasts are incubated with Vitamine D3 and PG2E which potentiate their M-CSF production and RANKL expression, needed for osteoclast activation. BM cells which contain osteoclast precursors are seeded then on the osteoblast monolayer, for 5 days, to obtain active multinucleated osteoclasts.
A co-culture of primary mouse osteoblasts and BM (containing ocl precursors as detailed above) was seeded in the presence of G-CSF (50 ng/ml), HGF (50 ng/ml), or SDF-1 (10 and 100 ng/ml). Five days later, TRAP+ multinucleated osteoclasts in the cultures were stained (as described in Example 1) and counted 5 days later.

[4] = tested on: SDF-1; test: SDF-1 transcription (RT-PCR) and secretion (ELISA) in primary calvaria osteoblasts; type: cell-based, mouse; details: 50 ng/ml, 3 days
Protocol: Osteoblast were incubated with G-CSF, HGF or remained untreated, and SDF-1 transcription and expression was determined in such cells (FIG. 9).
Primary calvaria osteoblasts were cultured for 3 days in the presence of SDF-1 (PeproTech, 100 […]), HGF (PeproTech, 50 ng/ml) and G-CSF (Filgrastin, Roche, 50 ng/ml). Conditioned media was collected to determine SDF-1 concentration by ELISA, as described in Example 2. Determination of SDF-1 transcription and expression as in Example 2.

[5] = tested on: mononuclear cells (MNC); test: Mononuclear cell counts in BM and PB by hemacytometer after LPS; type: in vivo, Balb/c mice; details: 16 hours post LPS, versus non treated mice
Protocol: (§3) In order to verify that the progenitor increase detected in PB in the LPS treated mice, results from the egress or mobilization of cells from the bone marrow, mononuclear cells (MNC) were monitored in the BM and in PB by counting numbers of ficolled WBC (leukocytes), using hemacytometer shortly after LPS treatment (16 hours post LPS treatment) and in BM and PB of non treated mice (FIG. 3).

[6] = tested on: CXCR4; test: CXCR4 expression in BM and PB by flow cytometry after LPS; type: in vivo, Balb/c mice; details: both BM and PB, 16 hours post LPS
Protocol: We monitored CXCR4 expression in BM and PB of LPS treated mice, 16 hours post LPS administration, and in control non treated mice.

[7] = tested on: HGF; test: Semi quantitative RT-PCR of BM after LPS: HGF; type: in vivo, mouse; details: LPS treated mice, 5 days
Protocol: (§4) One femur of each mouse was flushed with Trireagent for RNA extraction. 1 ug RNA was used for the preparation of cDNA. Semi quantitative RT-PCR was used to measure the transcription of mouse SDF-1, HGF and CTK. The following primers were used: SDF-1 (Ponomaryov, 2000, J. Clin. Invest. 106:1331): left primer (SEQ ID NO: 1) 5′-[…]-3′, right primer (SEQ ID NO: 2) 5′-[…]-3′. HGF (Weinstein, 2001, Moll Cell boil, 21(15):5122): left primer (SEQ ID NO: 3) 5′-[…]-3′, right primer (SEQ ID NO: 4) 5′-[…]-3′. CTK: left primer (SEQ ID NO: 5) 5′-[…]-3′, right primer (SEQ ID NO: 6) 5′-[…]-3′.

[8] = tested on: TRAP+ osteoclasts; test: TRAP staining of activated osteoclasts in BM after LPS; type: in vivo, Balb/c mice; details: LPS 250 μg/mouse single injection, 5 days later
Protocol: LPS (Sigma) was administered to Balb/c mice in a single subcutaneous injection of 250 μg/mouse, and saline was injected instead of LPS in control groups. 5 days following LPS administration, mice were sacrificed, bones were fixed, decalcified, paraffin embedded and sectioned, BM harvested, and the level of TRAP+ osteoclast (activated osteoclast) monitored.
In this assay substrate is exogeneously provided to measure intrinsic activity of the tissue TRAP in the BM of LPS treated mice (FIGS. 1A and B).

[9] = tested on: SDF-1; test: Semi quantitative RT-PCR of BM after LPS: SDF-1; type: in vivo, mouse; details: LPS treated mice, 5 days
Protocol: as §4

[10] = tested on: CTK; test: Semi quantitative RT-PCR of BM after LPS: CTK; type: in vivo, mouse; details: LPS treated mice, 5 days
Protocol: as §4

[11] = tested on: progenitors; test: CFU assay of progenitors in peripheral blood after LPS; type: in vivo, Balb/c mice
Protocol: Mice were administered for 5 days with LPS (as described in Example 1) and progenitor increase in peripheral blood (PB) was measured (as in Example 9).
as §2

[12] = tested on: SDF-1; test: SDF-1 concentration in bone marrow by ELISA after LPS; type: in vivo, Balb/c mice
Protocol: Mice were administered for 5 days with LPS as described in example 1 and SDF-1 concentration in bone marrow was monitored (by ELISA as described by Petit et al 2002).
as §3

HGF: hepatocyte growth factor (PeproTech)
mobilization of progenitors in vivo [1]: induced | osteoclast activation in vivo [2]: induced | level of activated TRAP+ osteoclasts [3]: significantly increased | SDF-1 transcription in osteoblasts [4]: induce | SDF-1 production in osteoblasts ([4]; conditioned media ELISA): induce

lipopolysaccharide [LPS]
decrease of MNC cells in the BM [5]: about 53% | increase of MNC cells in the PB [5]: about 78% | level of CXCR4 expression [6]: significant increase | HGF transcription in the BM [7]: dramatic increase | TRAP+ osteoclasts in the BM [8]: dramatic increase in TRAP+ osteoclasts | SDF-1 transcription in the BM [9]: decrease | CTK transcription in the BM [10]: dramatic increase | progenitor mobilization ([11]; 16 hours post LPS): significant increase in progenitor mobilization | level of progenitors in PB, higher than control non-treated mice ([11]; 5 days LPS): about 95% | progenitor colonies in PB ([11]; 5 days LPS): about 100 colonies per 5×10^5 seeded cells | decrease in BM SDF-1 concentration ([12]; 16 hours post LPS, versus non treated mice): about 55% | BM SDF-1 concentration ([12]; 5 days LPS): 0.4 ng/mg protein | decrease in BM SDF-1 concentration ([12]; 5 days LPS, versus non-treated control): about 66%
